Laboratory results taken from PubChem BioAssay (NCI).
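Growth conditions: 96-well plates. Treatment: test compound, 48 hours, 5 concentrations. Analysis: linear interpolation between bracketing concentrations; unreached endpoints set to highest concentration. TGI marks complete inhibition of growth.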

Columns and labels:
Test in all cases: NCI-60 cell line screen, 48 h
SK-MEL-2 melanoma = system: SK-MEL-2 melanoma
M14 melanoma = system: M14 melanoma
SW-620 colon = system: SW-620 colon
MALME-3M melanoma = system: MALME-3M melanoma
DMS 114 small cell lung = system: DMS 114 small cell lung
SNB-78 CNS = system: SNB-78 CNS
CCRF-CEM leukemia = system: CCRF-CEM leukemia
OVCAR-5 ovarian = system: OVCAR-5 ovarian
NCI-H226 lung = system: NCI-H226 lung
NCI-H23 lung = system: NCI-H23 lung
SF-268 CNS = system: SF-268 CNS
KM20L2 colon = system: KM20L2 colon
RXF-631 renal = system: RXF-631 renal
HT29 colon = system: HT29 colon
NCI-H460 lung = system: NCI-H460 lung
SF-295 CNS = system: SF-295 CNS
RXF 393 renal = system: RXF 393 renal
SF-539 CNS = system: SF-539 CNS
UACC-257 melanoma = system: UACC-257 melanoma
COLO 205 colon = system: COLO 205 colon
MOLT-4 leukemia = system: MOLT-4 leukemia
UO-31 renal = system: UO-31 renal
RPMI-8226 leukemia = system: RPMI-8226 leukemia
SK-MEL-5 melanoma = system: SK-MEL-5 melanoma
U251 CNS = system: U251 CNS
EKVX NSCLC = system: EKVX NSCLC
A549 NSCLC = system: A549 NSCLC
786-0 renal = system: 786-0 renal
SK-MEL-28 melanoma = system: SK-MEL-28 melanoma
NCI-H522 lung = system: NCI-H522 lung
IGROV1 ovarian = system: IGROV1 ovarian
K-562 leukemia = system: K-562 leukemia
SN12C renal = system: SN12C renal
DMS 273 small cell lung = system: DMS 273 small cell lung
LOX IMVI melanoma = system: LOX IMVI melanoma
M19-MEL melanoma = system: M19-MEL melanoma
HCC-2998 colon = system: HCC-2998 colon
LXFL 529 NSCLC = system: LXFL 529 NSCLC
OVCAR-8 ovarian = system: OVCAR-8 ovarian
HCT-116 colon = system: HCT-116 colon
XF 498 CNS = system: XF 498 CNS
SNB-75 CNS = system: SNB-75 CNS
ACHN renal = system: ACHN renal
UACC-62 melanoma = system: UACC-62 melanoma
HL-60(TB) leukemia = system: HL-60(TB) leukemia
OVCAR-4 ovarian = system: OVCAR-4 ovarian
SNB-19 CNS = system: SNB-19 CNS
HOP-18 NSCLC = system: HOP-18 NSCLC
SR leukemia = system: SR leukemia
OVCAR-3 ovarian = system: OVCAR-3 ovarian
HOP-92 NSCLC = system: HOP-92 NSCLC
HOP-62 NSCLC = system: HOP-62 NSCLC
CAKI-1 renal = system: CAKI-1 renal
DLD-1 colon = system: DLD-1 colon
KM12 colon = system: KM12 colon
TK-10 renal = system: TK-10 renal
SK-OV-3 ovarian = system: SK-OV-3 ovarian
A498 renal = system: A498 renal
HCT-15 colon = system: HCT-15 colon

Measured: TGI

CN(C)c1ncnc2c1Cc1ccccc1C(=O)N2C
not listed: A498 renal | HCT-15 colon
> 100 µM: all other assays above

COc1ccc2c(c1O)C(=O)C(CCC(=O)O)CC2 (stereo unspecified)
not listed: SK-MEL-2 melanoma | MALME-3M melanoma | OVCAR-5 ovarian | NCI-H226 lung | SF-268 CNS | UO-31 renal | NCI-H522 lung | K-562 leukemia | SR leukemia | KM12 colon
> 100 µM: all other assays above
